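The compound was tested at five concentrations on cells cultured in 96-well plates, with a 48-hour exposure period. TGI marks complete inhibition of growth.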
Assays:
Test in all cases: NCI-60 cell line screen, 48 h
786-0 renal = tested on: 786-0 renal
CAKI-1 renal = tested on: CAKI-1 renal
COLO 205 colon = tested on: COLO 205 colon
DU-145 prostate = tested on: DU-145 prostate
EKVX NSCLC = tested on: EKVX NSCLC
HCT-15 colon = tested on: HCT-15 colon
HL-60(TB) leukemia = tested on: HL-60(TB) leukemia
HS 578T breast = tested on: HS 578T breast
HT29 colon = tested on: HT29 colon
KM12 colon = tested on: KM12 colon
LOX IMVI melanoma = tested on: LOX IMVI melanoma
M14 melanoma = tested on: M14 melanoma
MCF7 breast = tested on: MCF7 breast
MDA-MB-435 = tested on: MDA-MB-435
SF-539 CNS = tested on: SF-539 CNS
SK-MEL-28 melanoma = tested on: SK-MEL-28 melanoma
SNB-75 CNS = tested on: SNB-75 CNS
UACC-257 melanoma = tested on: UACC-257 melanoma
UACC-62 melanoma = tested on: UACC-62 melanoma

| Compound | TGI (786-0 renal) | TGI (CAKI-1 renal) | TGI (COLO 205 colon) | TGI (DU-145 prostate) | TGI (EKVX NSCLC) | TGI (HCT-15 colon) | TGI (HL-60(TB) leukemia) | TGI (HS 578T breast) | TGI (HT29 colon) | TGI (KM12 colon) | TGI (LOX IMVI melanoma) | TGI (M14 melanoma) | TGI (MCF7 breast) | TGI (MDA-MB-435) | TGI (SF-539 CNS) | TGI (SK-MEL-28 melanoma) | TGI (SNB-75 CNS) | TGI (UACC-257 melanoma) | TGI (UACC-62 melanoma) |
| --- | --- | --- | --- | --- | --- | --- | --- | --- | --- | --- | --- | --- | --- | --- | --- | --- | --- | --- | --- |
| NCCc1nc(-c2nc(C(=O)O)cs2)cs1 | > 100 µM | > 100 µM | > 100 µM | > 100 µM | > 100 µM | > 100 µM | > 100 µM | > 100 µM | > 100 µM | > 100 µM | > 100 µM | > 100 µM | > 100 µM | > 100 µM | > 100 µM | > 100 µM | > 100 µM | > 100 µM | > 100 µM |
| CC[N+](C)(CC)Cc1ccccc1[N+](=O)[O-] | > 100 µM | > 100 µM | > 100 µM | > 100 µM | > 100 µM | > 100 µM | > 100 µM | > 100 µM | > 100 µM | > 100 µM | > 100 µM | > 100 µM | > 100 µM | > 100 µM | > 100 µM | > 100 µM | > 100 µM | > 100 µM | > 100 µM |
| CCSc1nc(N2CCOCC2)c2cn[nH]c2n1 | > 100 µM | > 100 µM | > 100 µM | > 100 µM | > 100 µM | > 100 µM | > 100 µM | > 100 µM | > 100 µM | > 100 µM | > 100 µM | > 100 µM | > 100 µM | > 100 µM | > 100 µM | > 100 µM | > 100 µM | > 100 µM | > 100 µM |
| C=CCNc1ccc(C)cc1 | – | – | > 100 µM | > 100 µM | – | > 100 µM | – | > 100 µM | > 100 µM | > 100 µM | > 100 µM | > 100 µM | > 100 µM | > 100 µM | – | > 100 µM | > 100 µM | > 100 µM | – |
| Cc1ccc2nc3ccccc3c(C3C4C(=O)N(c5ccc(Br)cc5Cl)C(=O)C4ON3C(C(N)=O)c3ccccc3)c2c1 (stereo not given) | > 25 µM | 10.5 µM | > 25 µM | > 25 µM | 15.5 µM | 19.5 µM | > 25 µM | > 25 µM | > 25 µM | > 25 µM | > 25 µM | > 25 µM | > 25 µM | > 25 µM | > 25 µM | > 25 µM | > 25 µM | > 25 µM | > 25 µM |
| O=c1c2ccccc2nnn1-c1n[nH]c2ccccc12 | > 100 µM | > 100 µM | > 100 µM | > 100 µM | > 100 µM | > 100 µM | – | > 100 µM | > 100 µM | > 100 µM | – | > 100 µM | > 100 µM | > 100 µM | > 100 µM | > 100 µM | > 100 µM | > 100 µM | > 100 µM |
| CCOc1cc(NC(C)=O)ccc1C(=O)NN1C(=O)C(Oc2ccccc2)C1c1ccc(O)c(OC)c1 (stereo not given) | > 100 µM | > 100 µM | 83.9 µM | > 100 µM | > 100 µM | > 100 µM | 44.8 µM | – | > 100 µM | > 100 µM | > 100 µM | > 100 µM | > 100 µM | > 100 µM | > 100 µM | > 100 µM | > 100 µM | > 100 µM | – |
| COc1ccc2c(c1)CCCc1cn[nH]c1-2 | – | > 100 µM | > 100 µM | – | > 100 µM | > 100 µM | > 100 µM | – | > 100 µM | > 100 µM | > 100 µM | – | > 100 µM | – | > 100 µM | > 100 µM | > 100 µM | > 100 µM | > 100 µM |
| CC(C)CCN=c1cc2n(-c3ccc(Cl)cc3)c3ccccc3nc-2cc1Nc1ccc(Cl)cc1 | – | > 67.6 µM | 12.9 µM | – | > 53 µM | 23.2 µM | 11.1 µM | – | 19.8 µM | > 41.2 µM | 8.03 µM | – | > 42 µM | – | 32.1 µM | > 82.8 µM | > 91.4 µM | 19.7 µM | 20.4 µM |
| Cc1cc(C)cc(Nc2nnc3n2S(=O)(=O)c2cc(C#N)c(Cl)cc2S3)c1 | > 100 µM | 12.6 µM | 34.6 µM | 12.5 µM | 21.2 µM | 8.16 µM | 19.4 µM | 15.8 µM | 4.98 µM | 4.46 µM | 9.03 µM | 28.2 µM | 6.56 µM | 10.4 µM | 3.97 µM | 14.2 µM | 7.56 µM | 3.32 µM | 15.4 µM |

Source: PubChem BioAssay (NCI)
